Like-named read-outs stand apart in the source and are kept apart here.
Key:
[1] = molecular target: IDH1-R132C recombinant protein (Homo sapiens (Human), UniProt O75874, R132C); test: IDH1-R132C enzymatic assay (inhibition of NADPH consumption, diaphorase/resazurin readout); assay type: biochemical; settings: read-out: Enzyme IDH1 R132C IC50 (Range)
How it was run: (§1)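 Compound was preincubated 15 min at 25 °C with 30 nM IDH1-R132H or 10 nM IDH1-R132C in Tris pH 7.5 buffer with MgCl2, BSA and Triton X-100. Reaction with 2 mM α-ketoglutarate and 20 μM NADPH (solution concentrations) ran 45 min at 25 °C. Remaining NADPH was detected via diaphorase/resazurin fluorescence (ex 535/em 590 nm), and IC50 came from four-parameter fits.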

[2] = test system: HCT116 isogenic IDH1-R132H mutant cells; test: Cellular 2-HG assay using HCT116 mutant IDH1 cells (R132H), RapidFire mass spectrometry; assay type: cell-based; settings: Homo sapiens, read-out: HCT116 IDH1 R132H IC50 (Range)
[3] = test system: HCT116 isogenic IDH1-R132C mutant cells; test: Cellular 2-HG assay using HCT116 mutant IDH1 cells (R132C), RapidFire mass spectrometry; assay type: cell-based; settings: Homo sapiens, read-out: HCT116 IDH1 R132C IC50 (Range)
[4] = molecular target: IDH1-R132H recombinant protein (Homo sapiens (Human), UniProt O75874, R132H); test: IDH1-R132H enzymatic assay (inhibition of NADPH consumption, diaphorase/resazurin readout); assay type: biochemical; settings: read-out: Enzyme IDH1 R132H IC50 (Range)
How it was run: as §1

[5] = HCT-116, cellular 2-HG level, HCT116 IDH1-R132H cells, 24 hours
[6] = HCT-116, cellular 2-HG level, HCT116 IDH1-R132C cells, 24 hours

Chain of IDH1-R132C recombinant protein (O75874 whole entry R132C): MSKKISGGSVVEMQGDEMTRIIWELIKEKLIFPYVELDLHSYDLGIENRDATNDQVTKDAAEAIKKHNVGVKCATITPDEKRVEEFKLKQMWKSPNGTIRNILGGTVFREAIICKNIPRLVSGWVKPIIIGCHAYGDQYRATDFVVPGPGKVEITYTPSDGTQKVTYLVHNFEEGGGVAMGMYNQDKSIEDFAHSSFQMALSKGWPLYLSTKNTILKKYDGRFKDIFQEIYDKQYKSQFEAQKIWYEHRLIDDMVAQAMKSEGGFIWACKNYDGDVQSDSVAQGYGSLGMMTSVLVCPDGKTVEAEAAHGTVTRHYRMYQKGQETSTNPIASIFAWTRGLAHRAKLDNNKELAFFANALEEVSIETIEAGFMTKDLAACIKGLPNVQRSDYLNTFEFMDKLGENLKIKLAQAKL
Chain of IDH1-R132H recombinant protein (O75874 whole entry R132H): as the sequence (O75874 whole entry R132C) above, with C132H counted along it

Row | IC50 [1] | IC50 [2, 5] | IC50 [3, 6] | IC50 [4] | Compound | IC50 ([2]; HCT-116, 24 h) | IC50 ([3]; HCT-116, 24 h)
1 | 100 to 1000 nM | 100 to 1000 nM | 100 to 1000 nM | 100 to 1000 nM | C[C@H](Nc1nccc(NC(=O)C2CC2)n1)c1cc2cc(Cl)c(F)cc2[nH]c1=O [Compound I-180, (S)—N-(2-((1-(6-chloro-7-fluoro-2-oxo-1,2-dihydroquinolin-3-yl)ethyl)amino)pyrimidin-4-yl)cyclopropanecarboxamide] | – | –
2 | 100 to 1000 nM | 100 to 1000 nM | 100 to 1000 nM | < 100 nM | CC(=O)Nc1ccnc(N[C@@H](C)c2cc3cc(Cl)cnc3[nH]c2=O)n1 [Compound I-182] | – | –
3 | 100 to 1000 nM | 100 to 1000 nM | 100 to 1000 nM | 100 to 1000 nM | C[C@H](Nc1nccc(-n2nnnc2C2CC2)n1)c1cc2cc(Cl)cnc2[nH]c1=O [Compound I-184] | – | –

Row | Compound | IC50 [1] | IC50 [2, 5] | IC50 [3, 6] | IC50 [4] | IC50 ([2]; HCT-116, 24 h) | IC50 ([3]; HCT-116, 24 h)
4 | COc1nc(N[C@@H](C)c2cc3cc(Cl)c(F)cc3[nH]c2=O)ncc1C#N [Compound I-181] | 100 to 1000 nM | – | – | < 100 nM | 100 to 1000 nM | 100 to 1000 nM

Reference: patent US10280150B2 (FORMA TM2, Inc., priority 2014, dated 2019)
